{
  "source": "patent US8592161B2",
  "about": "“Mutational profiles in HIV-1 protease correlated with phenotypic drug resistance” (Janssen R&D Ireland, priority 2002, dated 2013)",
  "data": [
    {"test_system": "HIV-1/LAI", "assay": "In vitro antiviral activity in acutely infected MT4 cells, wild type", "type": "cell-based", "conditions": "Human immunodeficiency virus 1, MT4, Table 1, wild-type HIV/LAI, read-out: median EC50", "protocol": "(§1) Determination of the antiviral activity of a compound was done as described in Pauwels R. et al. (J Virol Methods 1988; 20(4):309-21). Various concentrations of the test compounds were brought into each well of a flat-bottom microtiter plate. Subsequently, HIV and MT4 cells were added to a final concentration of 200-250 50% cell culture infectious doses (CCID50)/well and 30,000 cells/well, respectively. After 5 days of incubation (37° C., 5% CO2), the cytopathic effect of the replicating virus was determined by the tetrazolium colorimetric MTT method. The dose protecting 50% of the cells from virus cytopathic effect was defined as the EC50, while the dose achieving 90% protection was defined as the EC90.\n(§2) MT4-LTR-EGFP cells were infected at a multiplicity of infection (MOI) of 0.01 to 0.001 CCID50/cell in the presence of inhibitor. The starting concentration of the inhibitor was two to tee times the EC50, a suboptimal concentration. The cultures were sub-cultivated and scored microscopically on virus-induced fluorescence and cytopathicity every 3-4 days. The cultures were sub-cultivated in the presence of the same compound concentration until signs of virus replication were observed. The escaping virus was further cultivated in the presence of the same inhibitor concentration in order to enrich the population in resistant variants. If full virus breakthrough was observed the supernatant was collected and stored (new virus strain). Afterwards, the same virus was challenged with a higher compound concentration in order to select variants able to grow in the presence of as high as possible inhibitor concentrations. From the new viruses, a virus stock was grown in the absence of inhibitor.\n(§3) In vitro drug selection experiments starting from wild-type HIV-1 under pressure of compound 1, compound 2, and Nelfinavir (NFV) have been performed. Tables 1, 2, 3, 4, and 5 show the genotypic and phenotypic characterization of the selected strains.", "units": {"EC50": "nM"}, "values": [
      {"smiles": "CC(C)(C)NC(=O)[C@@H]1CN(Cc2cccnc2)CCN1C[C@@H](O)C[C@@H](Cc1ccccc1)C(=O)N[C@H]1c2ccccc2C[C@H]1O", "note": "[Indinavir]", "EC50": 28}
    ]},
    {"test_system": "HIV-1/LAI", "assay": "In vitro antiviral activity in acutely infected MT4 cells, wild type", "type": "cell-based", "conditions": "Human immunodeficiency virus 1, MT4, Table 2, wild-type HIV-1/LAI, read-out: median EC50", "protocol": "as §1, §2, §3", "units": {"EC50": "nM"}, "values": [
      {"smiles": "CC(C)(C)NC(=O)[C@@H]1CN(Cc2cccnc2)CCN1C[C@@H](O)C[C@@H](Cc1ccccc1)C(=O)N[C@H]1c2ccccc2C[C@H]1O", "note": "[Indinavir]", "EC50": 12}
    ]},
    {"test_system": "HIV-1/LAI", "assay": "In vitro antiviral activity in acutely infected MT4 cells, wild type", "type": "cell-based", "conditions": "Human immunodeficiency virus 1, MT4, Table 3, wild-type HIV-1/LAI, read-out: median EC50", "protocol": "as §1, §2, §3", "units": {"EC50": "nM"}, "values": [
      {"smiles": "CC(C)(C)NC(=O)[C@@H]1CN(Cc2cccnc2)CCN1C[C@@H](O)C[C@@H](Cc1ccccc1)C(=O)N[C@H]1c2ccccc2C[C@H]1O", "note": "[Indinavir]", "EC50": 12}
    ]},
    {"test_system": "HIV-1/LAI", "assay": "In vitro antiviral activity in acutely infected MT4 cells, wild type", "type": "cell-based", "conditions": "Human immunodeficiency virus 1, MT4, Table 4, wild-type HIV-1/LAI, read-out: median EC50", "protocol": "as §1, §2, §3", "units": {"EC50": "nM"}, "values": [
      {"smiles": "CC(C)(C)NC(=O)[C@@H]1CN(Cc2cccnc2)CCN1C[C@@H](O)C[C@@H](Cc1ccccc1)C(=O)N[C@H]1c2ccccc2C[C@H]1O", "note": "[Indinavir]", "EC50": 12}
    ]},
    {"test_system": "HIV-1/LAI", "assay": "In vitro antiviral activity in acutely infected MT4 cells, wild type", "type": "cell-based", "conditions": "Human immunodeficiency virus 1, MT4, Table 5, wild-type HIV-1/LAI, read-out: median EC50", "protocol": "as §1, §2, §3", "units": {"EC50": "nM"}, "values": [
      {"smiles": "CC(C)(C)NC(=O)[C@@H]1CN(Cc2cccnc2)CCN1C[C@@H](O)C[C@@H](Cc1ccccc1)C(=O)N[C@H]1c2ccccc2C[C@H]1O", "note": "[Indinavir]", "EC50": 12}
    ]},
    {"test_system": "HIV-1 strain selected with Comp 1 (20 nM, 94 days), protease R41G/R V82V/I", "assay": "In vitro antiviral activity in acutely infected MT4 cells, selected strain", "type": "cell-based", "conditions": "Human immunodeficiency virus 1, Table 4, strain R41G/R V82V/I (Comp 1 20 nM, 94 days), read-out: median EC50", "protocol": "as §1, §2, §3", "units": {"EC50": "nM"}, "values": [
      {"smiles": "CC(C)(C)NC(=O)[C@@H]1CN(Cc2cccnc2)CCN1C[C@@H](O)C[C@@H](Cc1ccccc1)C(=O)N[C@H]1c2ccccc2C[C@H]1O", "note": "[Indinavir]", "EC50": 3.1}
    ]},
    {"test_system": "HIV-1 strain selected with Comp 1 (20 nM, 94 days), protease R41G/R V82V/I", "assay": "In vitro antiviral activity in acutely infected MT4 cells, selected strain", "type": "cell-based", "conditions": "Table 4, strain R41G/R V82V/I (Comp 1 20 nM, 94 days)", "protocol": "as §1, §2, §3", "values": [
      {"smiles": "CC(C)(C)NC(=O)[C@@H]1CN(Cc2cccnc2)CCN1C[C@@H](O)C[C@@H](Cc1ccccc1)C(=O)N[C@H]1c2ccccc2C[C@H]1O", "note": "[Indinavir]", "median FC (fold change in EC50 as compared to wild type)": 0}
    ]},
    {"test_system": "HIV-1 strain selected with Comp 1 (40 nM, 161 days), protease R41G V82I", "assay": "In vitro antiviral activity in acutely infected MT4 cells, selected strain", "type": "cell-based", "conditions": "Human immunodeficiency virus 1, Table 4, strain R41G V82I (Comp 1 40 nM, 161 days), read-out: median EC50", "protocol": "as §1, §2, §3", "units": {"EC50": "nM"}, "values": [
      {"smiles": "CC(C)(C)NC(=O)[C@@H]1CN(Cc2cccnc2)CCN1C[C@@H](O)C[C@@H](Cc1ccccc1)C(=O)N[C@H]1c2ccccc2C[C@H]1O", "note": "[Indinavir]", "EC50": 2.1}
    ]},
    {"test_system": "HIV-1 strain selected with Comp 1 (40 nM, 161 days), protease R41G V82I", "assay": "In vitro antiviral activity in acutely infected MT4 cells, selected strain", "type": "cell-based", "conditions": "Table 4, strain R41G V82I (Comp 1 40 nM, 161 days)", "protocol": "as §1, §2, §3", "values": [
      {"smiles": "CC(C)(C)NC(=O)[C@@H]1CN(Cc2cccnc2)CCN1C[C@@H](O)C[C@@H](Cc1ccccc1)C(=O)N[C@H]1c2ccccc2C[C@H]1O", "note": "[Indinavir]", "median FC (fold change in EC50 as compared to wild type)": 0}
    ]},
    {"test_system": "HIV-1 strain selected with Comp 1 (40 nM, 175 days), protease R41G V82I", "assay": "In vitro antiviral activity in acutely infected MT4 cells, selected strain", "type": "cell-based", "conditions": "Human immunodeficiency virus 1, Table 4, strain R41G V82I (Comp 1 40 nM, 175 days), read-out: median EC50", "protocol": "as §1, §2, §3", "units": {"EC50": "nM"}, "values": [
      {"smiles": "CC(C)(C)NC(=O)[C@@H]1CN(Cc2cccnc2)CCN1C[C@@H](O)C[C@@H](Cc1ccccc1)C(=O)N[C@H]1c2ccccc2C[C@H]1O", "note": "[Indinavir]", "EC50": 3.9}
    ]},
    {"test_system": "HIV-1 strain selected with Comp 1 (40 nM, 175 days), protease R41G V82I", "assay": "In vitro antiviral activity in acutely infected MT4 cells, selected strain", "type": "cell-based", "conditions": "Table 4, strain R41G V82I (Comp 1 40 nM, 175 days)", "protocol": "as §1, §2, §3", "values": [
      {"smiles": "CC(C)(C)NC(=O)[C@@H]1CN(Cc2cccnc2)CCN1C[C@@H](O)C[C@@H](Cc1ccccc1)C(=O)N[C@H]1c2ccccc2C[C@H]1O", "note": "[Indinavir]", "median FC (fold change in EC50 as compared to wild type)": 0}
    ]},
    {"test_system": "HIV-1/LAI strain selected with Comp 1 (100 nM, 139 days), protease S37S/N R41R/K K70E", "assay": "In vitro antiviral activity in acutely infected MT4 cells, selected strain", "type": "cell-based", "conditions": "Human immunodeficiency virus 1, Table 2, strain S37S/N R41R/K K70E (Comp 1 100 nM, 139 days), read-out: median EC50", "protocol": "as §1, §2, §3", "units": {"EC50": "nM"}, "values": [
      {"smiles": "CC(C)(C)NC(=O)[C@@H]1CN(Cc2cccnc2)CCN1C[C@@H](O)C[C@@H](Cc1ccccc1)C(=O)N[C@H]1c2ccccc2C[C@H]1O", "note": "[Indinavir]", "EC50": 6.3}
    ]},
    {"test_system": "HIV-1/LAI strain selected with Comp 1 (100 nM, 139 days), protease S37S/N R41R/K K70E", "assay": "In vitro antiviral activity in acutely infected MT4 cells, selected strain", "type": "cell-based", "conditions": "Table 2, strain S37S/N R41R/K K70E (Comp 1 100 nM, 139 days)", "protocol": "as §1, §2, §3", "values": [
      {"smiles": "CC(C)(C)NC(=O)[C@@H]1CN(Cc2cccnc2)CCN1C[C@@H](O)C[C@@H](Cc1ccccc1)C(=O)N[C@H]1c2ccccc2C[C@H]1O", "note": "[Indinavir]", "median FC (fold change in EC50 as compared to wild type)": 1}
    ]},
    {"test_system": "HIV-1/LAI strain selected with Comp 1 (100 nM, 195 days), protease S37N R41S K70E", "assay": "In vitro antiviral activity in acutely infected MT4 cells, selected strain", "type": "cell-based", "conditions": "Human immunodeficiency virus 1, Table 2, strain S37N R41S K70E (Comp 1 100 nM, 195 days), read-out: median EC50", "protocol": "as §1, §2, §3", "units": {"EC50": "nM"}, "values": [
      {"smiles": "CC(C)(C)NC(=O)[C@@H]1CN(Cc2cccnc2)CCN1C[C@@H](O)C[C@@H](Cc1ccccc1)C(=O)N[C@H]1c2ccccc2C[C@H]1O", "note": "[Indinavir]", "EC50": 9.1}
    ]},
    {"test_system": "HIV-1/LAI strain selected with Comp 1 (100 nM, 195 days), protease S37N R41S K70E", "assay": "In vitro antiviral activity in acutely infected MT4 cells, selected strain", "type": "cell-based", "conditions": "Table 2, strain S37N R41S K70E (Comp 1 100 nM, 195 days)", "protocol": "as §1, §2, §3", "values": [
      {"smiles": "CC(C)(C)NC(=O)[C@@H]1CN(Cc2cccnc2)CCN1C[C@@H](O)C[C@@H](Cc1ccccc1)C(=O)N[C@H]1c2ccccc2C[C@H]1O", "note": "[Indinavir]", "median FC (fold change in EC50 as compared to wild type)": 1}
    ]}
  ]
}
